{"source": "paper PMC10179272", "about": "“SARS-CoV-2 Binding and Neutralization Properties of Peptides Derived from N-Terminus of Human ACE2” (International Journal of Molecular Sciences, 2023)", "key": {"[1]": {"system": "full-length S protein of SARS-CoV-2 (Wuhan variant)", "format": "binding", "conditions": "S protein 1 μg/mL coated; peptide incubated 2 h at RT; fluorescence 483 nm excitation/530 nm emission; result in words"}, "[2]": {"system": "live SARS-CoV-2 virus (variant B.1.1)"}, "[3]": {"system": "PVP with Wuhan variant S-protein"}, "[4]": {"system": "full-length S protein of SARS-CoV-2 (Wuhan variant)", "experiment": "Immunosorbent assay of P2 binding to immobilized S protein, detected with anti-P1 antibodies", "conditions": "P2 incubated 2 h at 37 °C; anti-P1 antibody 1 μg/mL, anti-rabbit IgG-HRP, TMB, A450-620; result in words"}, "[5]": {"system": "full-length SARS-CoV-2 S protein (Wuhan variant)", "experiment": "Competition of P1st with FAM-labeled peptides for S protein binding (fluorescent immunoassay)", "conditions": "P1st at 25 μM; P1-FAM 3.25 to 25 μM; fluorescence intensity; result in words"}}, "note": "Where a SMILES comes first, the peptide text is derived from it. Bridges are numbered along the chain shown (N, C = ends). [ ]: non-standard residue; d: D form. S5 = C=CCCC[C@](C)(N)C(=O)O", "data": [{"molecule": "TFLDKFNHEAEDLFYQ [SAP1, short ACE2 peptide, 16 aa, described previously [23]]", "values": [{"measurement": "Binding of FAM-labeled peptide to immobilized full-length S protein", "setting": "[1]", "result": "reasonable binding"}]}, {"molecule": "GKGDFRIL [SAP4, reference compound]", "values": [{"measurement": "Inhibitory activity on live SARS-CoV-2 infection of Vero cells at high concentration", "setting": "[2]; 300 μM peptide, […], judged non-specific, result in words", "result": "Inhibitory activity"}, {"measurement": "Binding of FAM-labeled peptide to immobilized full-length S protein", "setting": "[1]", "result": "failed to bind"}, {"measurement": "Inhibitory activity on PVP (Wuhan S protein) entry at high concentration", "setting": "[3]; 200 μM peptide, HEK/ACE2 cells, judged non-specific, result in words", "result": "Marked inhibitory activity"}]}, {"molecule": "EDLFYQ [SAP6, short ACE2 peptide, 6 aa, described previously [23]]", "values": [{"measurement": "Binding of FAM-labeled peptide to immobilized full-length S protein", "setting": "[1]", "result": "reasonable binding"}]}, {"molecule": "EDLFYQSSL [SAP2, short ACE2 peptide, 9 aa, described previously [23]]", "values": [{"measurement": "Binding of FAM-labeled peptide to immobilized full-length S protein", "setting": "[1]", "result": "reasonable binding"}]}, {"molecule": "MSTIEEQAKTFLDKFNHEAEDLFYQSSLASWNYNTNITEENVQNMNNAGDKWSAFLKEQSTLAQMYPLQEIQNLTVKLQLQALQ [P2]", "values": [{"measurement": "P2 binding to immobilized full-length S protein", "setting": "[4]", "result": "demonstrated their binding ability"}, {"measurement": "Inhibition of PVP (BA.1-like S protein) entry into ACE2-overexpressing cells", "setting": "BA.1-like (Omicron) PVP; […], flow cytometry, result in words", "result": "failed to inhibit PVP entry"}, {"measurement": "Inhibition of PVP (Wuhan S protein) entry into ACE2-overexpressing cells", "setting": "[3]; peptide 0 to 56 μM (Figure 3), […], flow cytometry, result in words", "result": "could not inhibit entry"}]}, {"molecule": "STIEEQAKTFLDAFNHAAAALFAQSSLASWNY [P1m, control P1 with alanine substitutions of key amino acids]", "values": [{"measurement": "Binding of FAM-labeled peptide to immobilized full-length S protein", "setting": "[1]", "result": "failed to bind"}]}, {"molecule": "CC[C@H](C)[C@H](NC(=O)[C@@H](NC(=O)[C@H](CO)NC(C)=O)[C@@H](C)O)C(=O)N[C@@H](CCC(=O)O)C(=O)N[C@@H](CCC(=O)O)C(=O)N[C@@H](CCC(N)=O)C(=O)N[C@@H](C)C(=O)N[C@@H](CCCCN)C(=O)N[C@H](C(=O)N[C@@]1(C)CCCC=CCCC[C@@](C)(C(=O)N[C@@H](CC(N)=O)C(=O)N[C@@H](Cc2c[nH]cn2)C(=O)N[C@@H](CCC(=O)O)C(=O)N[C@@H](C)C(=O)N[C@@H](CCC(=O)O)C(=O)N[C@@H](CC(=O)O)C(=O)N[C@@H](CC(C)C)C(=O)N[C@@H](Cc2ccccc2)C(=O)N[C@@H](Cc2ccc(O)cc2)C(=O)N[C@@H](CCC(N)=O)C(=O)N[C@@]2(C)CCCC=CCCC[C@@](C)(C(=O)N[C@@H](Cc3c[nH]c4ccccc34)C(=O)N[C@@H](CC(N)=O)C(=O)N[C@@H](Cc3ccc(O)cc3)C(N)=O)NC(=O)[C@H](C)NC(=O)[C@H](CC(C)C)NC(=O)[C@H](CO)NC2=O)NC(=O)[C@H](CCCCN)NC(=O)[C@H](CC(=O)O)NC(=O)[C@H](CC(C)C)NC1=O)[C@@H](C)O", "note": "[P1st] (Ac-STIEEQAKT[S5]LDK[S5]NHEAEDLFYQ[S5]SLA[S5]WNY-NH2; staple 10-14, 25-29)", "values": [{"measurement": "IC50", "setting": "[2]; live virus (variant B.1.1, 4 h)", "result": 7.04, "unit": "µM"}, {"measurement": "Competition with other peptides (P1-FAM, SAP) for binding to S protein", "setting": "[5]", "result": "able to efficiently compete"}, {"measurement": "IC50", "setting": "BA.1-like (Omicron) PVP; 48 h", "result": 18.3, "unit": "µM"}, {"measurement": "IC50", "setting": "[3]; 48 h", "result": 25.4, "unit": "µM"}]}]}
